Each structure is given as a SMILES string.

The target in this assay is T1, human GPR119 (Homo sapiens, UniProt Q8TDV5).
T1 construct: expression vector for human GPR119 cDNA (Acc. No. NP_848566); expressed in transfected cells; Min-6/hGPR119
T1 sequence (Q8TDV5 1-335): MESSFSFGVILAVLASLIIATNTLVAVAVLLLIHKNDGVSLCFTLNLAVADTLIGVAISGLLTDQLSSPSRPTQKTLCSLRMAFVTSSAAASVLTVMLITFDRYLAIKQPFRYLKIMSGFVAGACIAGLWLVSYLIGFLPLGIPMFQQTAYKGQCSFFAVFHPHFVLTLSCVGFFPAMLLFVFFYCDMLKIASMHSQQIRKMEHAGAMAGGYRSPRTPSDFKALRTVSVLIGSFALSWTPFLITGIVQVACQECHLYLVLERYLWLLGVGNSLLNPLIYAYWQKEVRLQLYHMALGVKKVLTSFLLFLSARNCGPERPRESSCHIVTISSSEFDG
The assay can be described thus: AlphaScreen cAMP assay in MIN6 cells stably transfected with human GPR119. To be noted: Min-6/hGPR119 cells, 45 min at room temperature. The class given is cell-based. The method, boiled down: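 cAMP accumulation quantified by AlphaScreen after 45 min compound stimulation at about 20 °C. Stimulation buffer: pH 7.4 HEPES saline with 0.5 mM IBMX, 0.1% BSA, 1% DMSO final. Cells: MIN6 stably transfected with human GPR119, 10000/well, cultured 24 h beforehand.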
(In general: Alpha assays give light when donor and acceptor beads are brought close together.)
The term EC50 denotes the midpoint of the concentration-response curve. With `CC(C)(C)OC(=O)N1CCC(N(C(=O)c2cnc(-c3cnco3)c(F)c2)C2CC2)CC1` [Example 14, 4-[Cyclopropyl-(5-fluoro-6-oxazol-5-yl-pyridine-3-carbonyl)-amino]-piperidine-1-carboxylic acid tert-butyl ester], the EC50 was 145 nM. With `CC(C)(C)OC(=O)N1CCC(N(C(=O)c2cnc(-c3ccc(CC(=O)N4CC(F)(F)C4)cc3)nc2)C2CC2)CC1` [Example 184, 4-[Cyclopropyl-(2-{4-[2-(3,3-difluoro-azetidin-1-yl)-2-oxo-ethyl]-phenyl}-pyrimidine-5-carbonyl)-amino]-piperidine-1-carboxylic acid tert-butyl ester] the figure was 149 nM; with `CC(C)(C)OC(=O)N1CCC(N(C(=O)c2cc(-c3ccc(C#N)cc3)no2)C2CC2)CC1` [Example 41, 4-{[3-(4-Cyano-phenyl)-isoxazole-5-carbonyl]-cyclopropyl-amino}-piperidine-1-carboxylic acid tert-butyl ester], 11 nM.

On to `COc1ncc(-c2ncc(C(=O)N(C3CC3)C3CCN(C(=O)OC(C)(C)C)CC3)cn2)cn1` [Example 82, 4-[Cyclopropyl-(2′-methoxy-[2,5′]bipyrimidinyl-5-carbonyl)-amino]-piperidine-1-carboxylic acid tert-butyl ester], for which the EC50 was 65 nM.

As for `COc1ccc(NC(=O)c2ccc(-c3ncc(C(=O)N(C4CC4)C4CCN(C(=O)OC(C)(C)C)CC4)cn3)c(F)c2)c(OC)c1` [Example 143, 4-(Cyclopropyl-{2-[4-(2,4-dimethoxy-phenylcarbamoyl)-2-fluoro-phenyl]-pyrimidine-5-carbonyl}-amino)-piperidine-1-carboxylic acid tert-butyl ester], the response was half-maximal at 168 nM (EC50). Compound `CC(C)(C)OC(=O)N1CCC(N(C(=O)c2cnc(-c3ccc(C(=O)Nc4cccc(CO)c4)c(F)c3)nc2)C2CC2)CC1` [Example 110, 4-(Cyclopropyl-{2-[3-fluoro-4-(3-hydroxymethyl-phenylcarbamoyl)-phenyl]-pyrimidine-5-carbonyl}-amino)-piperidine-1-carboxylic acid tert-butyl ester] gave an EC50 of 141 nM.

Compound `COCCN(C)C(=O)c1ccc(-c2ncc(C(=O)N(C3CC3)C3CCN(C(=O)OC(C)(C)C)CC3)cn2)cc1F` [Example 160, 4-[Cyclopropyl-(2-{3-fluoro-4-[(2-methoxy-ethyl)-methyl-carbamoyl]-phenyl}-pyrimidine-5-carbonyl)-amino]-piperidine-1-carboxylic acid tert-butyl ester] yielded an EC50 of 229 nM.

In turn, `COCC1CCCCN1C(=O)c1ccc(-c2ncc(C(=O)N(C3CC3)C3CCN(C(=O)OC(C)(C)C)CC3)cn2)cc1F` (stereo not drawn) [Example 149, 4-(Cyclopropyl-{2-[3-fluoro-4-(2-methoxymethyl-piperidine-1-carbonyl)-phenyl]-pyrimidine-5-carbonyl}-amino)-piperidine-1-carboxylic acid tert-butyl ester] yielded an EC50 of 297 nM. Turning to `CNS(=O)(=O)c1ccc(-c2ncc(C(=O)N(C3CC3)C3CCN(C(=O)OC(C)(C)C)CC3)cn2)cc1` [Example 92, 4-{Cyclopropyl-[2-(4-methanesulfamoyl-phenyl)-pyrimidine-5-carbonyl]-amino}-piperidine-1-carboxylic acid tert-butyl ester], the midpoint of the response, the EC50, lay at 151 nM. As for `CCOc1ccc(-c2ncc(C(=O)N(C3CC3)C3CCN(C(=O)OC(C)(C)C)CC3)cn2)cc1` [Example 76, 4-{Cyclopropyl-[2-(4-ethoxy-phenyl)-pyrimidine-5-carbonyl]-amino}-piperidine-1-carboxylic acid tert-butyl ester], the EC50 was determined as 71 nM. The result for `CC(C)(C)OC(=O)N1CCC(N(C(=O)c2cn(-c3ccc(C#N)cc3F)cn2)C2CC2)CC1` [Example 16, 4-{[1-(4-Cyano-2-fluoro-phenyl)-1H-imidazole-4-carbonyl]-cyclopropyl-amino}-piperidine-1-carboxylic acid tert-butyl ester] reads 66 nM; that for `CC(C)(C)OC(=O)N1CCC(N(C(=O)c2ncc(-c3ccc(CC#N)cc3)cn2)C2CC2)CC1` [Example 67], 219 nM. The result for `CC(C)(C)OC(=O)N1CCC(N(C(=O)c2cnc(-c3ccc(C(=O)N4CCC(O)(C(F)(F)F)CC4)c(F)c3)nc2)C2CC2)CC1` [Example 141, 4-(Cyclopropyl-{2-[3-fluoro-4-(4-hydroxy-4-trifluoromethyl-piperidine-1-carbonyl)-phenyl]-pyrimidine-5-carbonyl}-amino)-piperidine-1-carboxylic acid tert-butyl ester] reads 231 nM; that for `COc1ccc(NC(=O)c2ccc(-c3ncc(C(=O)N(C4CC4)C4CCN(C(=O)OC(C)(C)C)CC4)cn3)cc2F)cn1` [Example 122, 4-(Cyclopropyl-{2-[3-fluoro-4-(6-methoxy-pyridin-3-ylcarbamoyl)-phenyl]-pyrimidine-5-carbonyl}-amino)-piperidine-1-carboxylic acid tert-butyl ester], 55 nM; that for `COCC(C)NC(=O)c1ccc(-c2ncc(C(=O)N(C3CC3)C3CCN(C(=O)OC(C)(C)C)CC3)cn2)cc1F` (stereo not drawn) [Example 130, 4-(Cyclopropyl-{2-[3-fluoro-4-(2-methoxy-1-methyl-ethylcarbamoyl)-phenyl]-pyrimidine-5-carbonyl}-amino)-piperidine-1-carboxylic acid tert-butyl ester], 193 nM. Consider `CC(C)OC(=O)N1CCC(N(C(=O)c2cnc(-c3ccc(S(C)(=O)=O)cc3)nc2)C2CC2)CC1` [Example 53, 4-{Cyclopropyl-[2-(4-methanesulfonyl-phenyl)-pyrimidine-5-carbonyl]-amino}-piperidine-1-carboxylic acid isopropyl ester], for which a half-maximal effect (EC50) was put at 120 nM. `COc1ccc(NC(=O)c2ccc(-c3ncc(C(=O)N(C4CC4)C4CCN(C(=O)OC(C)(C)C)CC4)cn3)cc2F)c(OC)c1` [Example 120, 4-(Cyclopropyl-{2-[4-(2,4-dimethoxy-phenylcarbamoyl)-3-fluoro-phenyl]-pyrimidine-5-carbonyl}-amino)-piperidine-1-carboxylic acid tert-butyl ester] yielded an EC50 of 212 nM. `CC(C)(C)OC(=O)N1CCC(N(C(=O)c2coc(-c3cnco3)n2)C2CC2)CC1` [Example 27, 4-[([2,5′]Bioxazolyl-4-carbonyl)-cyclopropyl-amino]-piperidine-1-carboxylic acid tert-butyl ester] returned an EC50 of 1800 nM. With `CC(C)(C)OC(=O)N1CCC(N(C(=O)c2noc(-c3ccc(S(C)(=O)=O)cc3F)n2)C2CC2)CC1` [Example 19, 4-{Cyclopropyl-[5-(2-fluoro-4-methanesulfonyl-phenyl)-[1,2,4]oxadiazole-3-carbonyl]-amino}-piperidine-1-carboxylic acid tert-butyl ester] the figure was 21 nM; with `CC(C)(C)OC(=O)N1CCC(N(C(=O)c2cnc(-c3ccc(CC(=O)NC[C@H]4CCCC[C@H]4O)cc3)nc2)C2CC2)CC1` [Example 189], 434 nM. `CC(C)(C)OC(=O)N1CCC(N(C(=O)c2cnc(-n3cnnc3)nc2)C2CC2)CC1` [Example 100, 4-[Cyclopropyl-(2-[1,2,4]triazol-4-yl-pyrimidine-5-carbonyl)-amino]-piperidine-1-carboxylic acid tert-butyl ester] came in with an EC50 of 810 nM. With `CC(C)(C)OC(=O)N1CCC(N(C(=O)c2cnc(-c3ccc(C(=O)N4CCC(C#N)C4)cc3)nc2)C2CC2)CC1` (stereo not drawn) [Example 239, 4-({2-[4-(3-Cyano-pyrrolidine-1-carbonyl)-phenyl]-pyrimidine-5-carbonyl}-cyclopropyl-amino)-piperidine-1-carboxylic acid tert-butyl ester] the figure was 424 nM; with `CC(C)(C)OC(=O)N1CCC(N(C(=O)c2ncc(-c3ccc(C#N)cc3)o2)C2CC2)CC1` [Example 37, 4-{[5-(4-Cyano-phenyl)-oxazole-2-carbonyl]-cyclopropyl-amino}-piperidine-1-carboxylic acid tert-butyl ester], 142 nM. With `COCCN(C)C(=O)Cc1ccc(-c2ncc(C(=O)N(C3CC3)C3CCN(C(=O)OC(C)(C)C)CC3)cn2)cc1` [Example 195, 4-{Cyclopropyl-[2-(4-{[(2-methoxy-ethyl)-methyl-carbamoyl]-methyl}-phenyl)-pyrimidine-5-carbonyl]-amino}-piperidine-1-carboxylic acid tert-butyl ester] the figure was 486 nM; with `CC(C)(C)OC(=O)N1CCC(N(C(=O)c2cnc(-c3ccc(C(=O)NCc4cccnc4)cc3)nc2)C2CC2)CC1` [Example 229, 4-[Cyclopropyl-(2-{4-[(pyridin-3-ylmethyl)-carbamoyl]-phenyl}-pyrimidine-5-carbonyl)-amino]-piperidine-1-carboxylic acid tert-butyl ester], 177 nM.

As for `CC(C)(C)OC(=O)N1CCC(N(C(=O)c2cnc(-c3ccc(C(=O)NCC4CCOC4)c(F)c3)nc2)C2CC2)CC1` (stereo not drawn) [Example 131, 4-[Cyclopropyl-(2-{3-fluoro-4-[(tetrahydro-furan-3-ylmethyl)-carbamoyl]-phenyl}-pyrimidine-5-carbonyl)-amino]-piperidine-1-carboxylic acid tert-butyl ester], the EC50 is 175 nM.

`CC(C)(C)OC(=O)N1CCC(N(C(=O)c2cnc(-c3ccc(NS(C)(=O)=O)cc3)nc2)C2CC2)CC1` [Example 79, 4-{Cyclopropyl-[2-(4-methanesulfonylamino-phenyl)-pyrimidine-5-carbonyl]-amino}-piperidine-1-carboxylic acid tert-butyl ester] showed an EC50 of 210 nM.

The record behind these values is patent publication US20140045823A1 (Neurocrine Biosciences, Inc., priority 2012, published 2014).
